Experimental data reported in US7582627B2, “3-aminoquinazolin-2,4-dione antibacterial agents” (Warner-Lambert Company, priority 2000, dated 2009).
Where a name gives a salt, the structure may show the parent alone.

Compound | melting point
Cc1c(N2CCC(C)(CN)C2)c(F)cc2c(=O)n(N)c(=O)n(C3CC3)c12.Cl (centres unmarked) | 210 °C
Cl.N[C@H]1CCN(c2nc3c(cc2F)c(=O)n(N)c(=O)n3C2CC2)C1 | 213 to 215 °C
CC(C)(N)[C@@H]1CCN(c2nc3c(cc2F)c(=O)n(N)c(=O)n3C2CC2)C1.Cl | > 260 °C
CC(C)n1c(=O)n(N)c(=O)c2cc(F)c(N3CCC(N)C3)c(Cl)c21 (centres unmarked) (as salt: trifluoroacetate) | 151 °C
Cc1c(N2CC(C)C(C(C)N)C2)c(F)cc2c(=O)n(N)c(=O)n(C3CC3)c12.Cl (centres unmarked) | 240 °C
Cc1c(N2CC(C(C)N)C(C)(C)C2)c(F)cc2c(=O)n(N)c(=O)n(C3CC3)c12.Cl (centres unmarked) | 246 °C
CS(=O)(=O)NCC1CCN(c2c(F)cc3c(=O)n(N)c(=O)n(C4CC4)c3c2Cl)C1.Cl (centres unmarked) | 109 to 112 °C
CN[C@@H](C)[C@@H]1CCN(c2cc3c(c(C)c2F)c(=O)n(N)c(=O)n3C2CC2)C1.Cl | 182 to 185 °C
COc1c(N2CCC(F)(C(C)N)C2)c(F)cc2c(=O)n(N)c(=O)n(C3CC3)c12.Cl (centres unmarked) | 190 to 192 °C
Cc1c(N2CCC(CN)(c3ccccc3)C2)c(F)cc2c(=O)n(N)c(=O)n(C3CC3)c12.Cl (centres unmarked) | 227 to 231 °C
COc1c(N2C[C@@H](CN)[C@H](C(F)(F)F)C2)c(F)cc2c(=O)n(N)c(=O)n(C3CC3)c12.Cl (relative stereo) | 205 to 207 °C
CC1(CN)CCN(c2c(F)cc3c(=O)n(N)c(=O)n(C4CC4)c3c2Cl)C1 (centres unmarked) (as salt: hydrochloride) [Compound 3, 3-Amino-7-[3-(aminomethyl)-3-methylpyrrolidin-1-yl]-8-chloro-1-cyclopropyl-6-fluoro-1H-quinazoline-2,4-dione hydrochloride] | 166 to 168 °C
Cc1c(N2CCC(C)(N)C2)c(F)cc2c(=O)n(N)c(=O)n(C3CC3)c12.Cl (centres unmarked) | 237 to 240 °C
COc1c(N2CCC(C(C)(C)O)C2)c(F)cc2c(=O)n(N)c(=O)n(C3CC3)c12.Cl (centres unmarked) | 134 °C (dec.)
Cc1c(N2CCC(C(=O)O)C2)c(F)cc2c(=O)n(N)c(=O)n(C3CC3)c12.O=C(O)C(F)(F)F (centres unmarked) | 226 °C (dec.)
Cc1c(N2CC3CC3(CN)C2)c(F)cc2c(=O)n(N)c(=O)n(C3CC3)c12.Cl (centres unmarked) | 189 to 194 °C
Cc1c(N2CCC(CN)C2)c(F)cc2c(=O)n(N)c(=O)n(C3CC3)c12.O=C(O)C(F)(F)F (centres unmarked) | 82 to 84 °C
COc1c(N2C[C@@H](CN)[C@@H](F)C2)c(F)cc2c(=O)n(N)c(=O)n(C3CC3)c12.Cl (relative stereo) | 169 to 179 °C
COc1c(N2CCCC2)c(F)cc2c(=O)n(N)c(=O)n(C3CC3)c12.Cl | 92 to 94 °C
COc1c(N2CC(C(C)N)C(C)(C)C2)c(F)cc2c(=O)n(N)c(=O)n(C3CC3)c12.Cl (centres unmarked) | 230 °C
Cc1c(N2CCCC2)c(F)cc2c(=O)n(N)c(=O)n(C3CC3)c12.Cl | 178 to 180 °C
Nc1c(F)c(N2CC[C@H](N)C2)c(F)c2c1c(=O)n(N)c(=O)n2C1CC1 (as salt: hydrochloride) [Compound 11, 7-((S)-3-Aminopyrrolidin-1-yl)-1-cyclopropyl-3,5-diamino-6,8-difluoro-1H-quinazoline-2,4-dione hydrochloride] | 215 to 218 °C (dec.)
Cc1c(N2CC3C(N)C3C2)c(F)cc2c(=O)n(N)c(=O)n(C3CC3)c12.Cl (centres unmarked) | 180 to 182 °C
COc1c(N2CCC3(CC3N)C2)c(F)cc2c(=O)n(N)c(=O)n(C3CC3)c12.Cl (centres unmarked) | > 250 °C

Compound | melting point
Cc1c(N2CC3CCCCC3(CN)C2)c(F)cc2c(=O)n(N)c(=O)n(C3CC3)c12.Cl (centres unmarked) | > 250 °C
Cl.N[C@H]1CCN(c2cc3c(cc2F)c(=O)n(N)c(=O)n3C2CC2)C1 | > 250 °C
COc1c(N2CC3C(N)CC3(C)C2)c(F)cc2c(=O)n(N)c(=O)n(C3CC3)c12.Cl (centres unmarked) | > 190 °C
CS(=O)(=O)NCC1CCN(c2c(F)cc3c(=O)n(N)c(=O)n(C4CC4)c3c2Cl)C1 (centres unmarked) [Compound 74, N-[1-(3-Amino-8-chloro-1-cyclopropyl-6-fluoro-2,4-dioxo-1,2,3,4-tetrahydroquinazolin-7-yl)pyrrolidin-3-ylmethyl]methanesulfonamide] | 109 to 112 °C
Cc1c(N2CC3CCCNC3C2)c(F)cc2c(=O)n(N)c(=O)n(C3CC3)c12.Cl (centres unmarked) | 220 °C
CCn1c(=O)n(N)c(=O)c2cc(F)c(N3CC[C@@H](C(C)(C)N)C3)cc21.Cl | > 250 °C
Cl.Cl.NCC1CCCN(c2nc3c(cc2F)c(=O)n(N)c(=O)n3C2CC2)C1 (centres unmarked) | 152 to 154 °C
CN[C@H](C)[C@@H]1CCN(c2nc3c(cc2F)c(=O)n(N)c(=O)n3C2CC2)C1.Cl | 137 to 139 °C
COc1c(N2CCC(CN)CC2)c(F)cc2c(=O)n(N)c(=O)n(C3CC3)c12.Cl | 201 °C
CN[C@H]1CCN(c2c(F)cc3c(=O)n(N)c(=O)n(C4CC4)c3c2Cl)C1 (as salt: hydrochloride) [Compound 5, 3-Amino-7-((S)-3-N-methylaminopyrrolidin-1-yl)-8-chloro-1-cyclopropyl-6-fluoro-1H-quinazoline-2,4-dione hydrochloride] | 118 to 120 °C
Cc1c(F)c(N2CCC(N)C2)cc2c1c(=O)n(N)c(=O)n2C1CC1.Cl (centres unmarked) | 238 to 240 °C
CCn1c(=O)n(N)c(=O)c2ccc(N3CC[C@H](N)C3)c(F)c21.Cl | 248 to 251 °C
Nn1c(=O)c2cc(F)c(N3CCC4(CCNC4)C3)c(Cl)c2n(C2CC2)c1=O (centres unmarked) [Compound 62, 3-Amino-8-chloro-1-cyclopropyl-7-(2,7-diazaspiro[4.4]non-2-yl)-6-fluoro-1H-quinazoline-2,4-dione] | 147 to 149 °C
Cc1c(F)c(N2CC[C@H]([C@@H](C)N)C2)cc2c1c(=O)n(N)c(=O)n2C1CC1.Cl | 245 to 247 °C
Cl.NCC1CCN(c2cc3c(cc2F)c(=O)n(N)c(=O)n3C2CC2)C1 (centres unmarked) | 170 to 172 °C
COc1cc2c(=O)n(N)c(=O)n(C3CC3)c2c(F)c1N1CCC(N)C1.Cl (centres unmarked) | 208 to 210 °C
Cl.NCCC1CCN(c2c(F)cc3c(=O)n(N)c(=O)n(C4CC4)c3c2Cl)C1 (centres unmarked) | 158 to 160 °C
Cc1c(N2CC[C@@H](C(C)(C)N)C2)c(F)cc2c(=O)n(N)c(=O)n(C3CC3)c12.Cl | 200 to 202 °C
Cc1c(N2CCCC(CN)C2)c(F)cc2c(=O)n(N)c(=O)n(C3CC3)c12.Cl (centres unmarked) | 219 to 221 °C
Cl.N[C@@H]1CN(c2c(F)cc3c(=O)n(N)c(=O)n(C4CC4)c3c2Cl)C[C@H]1C(F)(F)F (relative stereo) | 181 to 183 °C
Cc1c(N2CC[C@H]([C@H](C)N)C2)c(F)cc2c(=O)n(N)c(=O)n(C3CC3)c12.Cl | 192 to 194 °C
N[C@H]1CCN(c2c(F)c(F)c3c(=O)n(N)c(=O)n(C4CC4)c3c2F)C1 (as salt: hydrochloride) [Compound 9, 3-Amino-7-((S)-3-aminopyrrolidin-1-yl)-1-cyclopropyl-5,6,8-trifluoro-1H-quinazoline-2,4-dione hydrochloride] | 271 °C (dec.)
Cl.N[C@@H]1CN(c2c(F)cc3c(=O)n(N)c(=O)n(C4CC4)c3c2Cl)C[C@H]1c1ccc(O)cc1 (relative stereo) | > 200 °C
COc1c(N2C[C@@H](CN)[C@H](C)C2)c(F)cc2c(=O)n(N)c(=O)n(C3CC3)c12.Cl (relative stereo) | 189 °C

Compound | melting point
CN[C@@H](C)[C@@H]1CCN(c2c(F)cc3c(=O)n(N)c(=O)n(C4CC4)c3c2C)C1.Cl | 153 to 155 °C
COc1c(N2CC(C)C(C(C)N)C2)c(F)cc2c(=O)n(N)c(=O)n(C3CC3)c12.Cl (centres unmarked) | 204.5 °C
Cc1c(N2CCC(C(C)(C)O)C2)c(F)cc2c(=O)n(N)c(=O)n(C3CC3)c12.Cl (centres unmarked) | 116 to 120 °C
Cl.Nn1c(=O)c2cc(F)c(N3CCCC3)c(Cl)c2n(C2CC2)c1=O | 96 to 98 °C
Cl.N#Cc1c(N2CCC(N)C2)c(F)cc2c(=O)n(N)c(=O)n(C3CC3)c12 (centres unmarked) | 277 °C
Cl.Nn1c(=O)c2cc(F)c(C3CCC4CNCC4N3)nc2n(C2CC2)c1=O (centres unmarked) | 200 to 202 °C
Cc1c(N2CC[C@H]([C@@H](C)N)C2)c(F)cc2c(=O)n(N)c(=O)n(C3CC3)c12.Cl [Compound 75] | 194 to 196 °C
COc1c(N2CC(N)C(F)C2)c(F)cc2c(=O)n(N)c(=O)n(C3CC3)c12.Cl (centres unmarked) | > 250 °C
COC1CN(c2c(F)cc3c(=O)n(N)c(=O)n(C4CC4)c3c2C)CC1N.Cl (centres unmarked) | > 250 °C
Cc1c(N2CCCC(CCN)C2)c(F)cc2c(=O)n(N)c(=O)n(C3CC3)c12.Cl (centres unmarked) | 200 °C
COc1c(N2CCC(O)(CN)C2)c(F)cc2c(=O)n(N)c(=O)n(C3CC3)c12.Cl (centres unmarked) | 202 °C
NC1C2CN(c3c(F)cc4c(=O)n(N)c(=O)n(C5CC5)c4c3Cl)CC12 (centres unmarked) (as salt: hydrochloride) | 111 to 114 °C
Cc1c(N2CCC(N)(c3ccccc3)C2)c(F)cc2c(=O)n(N)c(=O)n(C3CC3)c12.Cl (centres unmarked) | 236 °C
CC(C)(N)[C@@H]1CCN(c2c(F)cc3c(=O)n(N)c(=O)n(C4CC4)c3c2Cl)C1.Cl | 117 to 120 °C
COc1c(N2CC[C@H]([C@@H](C)N)C2)c(F)cc2c(=O)n(N)c(=O)n(C3CC3)c12.Cl [Compound 133] | 228 to 230 °C
COc1c(N2CC[C@H]([C@H](C)N)C2)c(F)cc2c(=O)n(N)c(=O)n(C3CC3)c12.Cl | 221 to 223 °C
CC1COc2c(N3CC[C@H](N)C3)c(F)cc3c(=O)n(N)c(=O)n1c23.Cl (some centres unmarked) | 202 to 204 °C
COc1c(N2CC3CCCCC3(CN)C2)c(F)cc2c(=O)n(N)c(=O)n(C3CC3)c12.Cl (centres unmarked) | > 250 °C
C[C@H](N)[C@@H]1CCN(c2c(F)cc3c(=O)n(N)c(=O)n(C4CC4)c3c2Cl)C1.Cl | 164 to 166 °C
COc1c(N2CCCC(C(C)N)C2)c(F)cc2c(=O)n(N)c(=O)n(C3CC3)c12.Cl (centres unmarked) | 198 °C
CC1COc2c(N3CC[C@@H]([C@H](C)N)C3)c(F)cc3c(=O)n(N)c(=O)n1c23.Cl (some centres unmarked) | 192 to 194 °C
CC1CCc2c(N3CC[C@H](N)C3)c(F)cc3c(=O)n(N)c(=O)n1c23 (some centres unmarked) (as salt: hydrochloride) | 202 to 204 °C
Cc1c(N2CC(CN)C3(CC3)C2)c(F)cc2c(=O)n(N)c(=O)n(C3CC3)c12.Cl (centres unmarked) | 167 °C
